pIC50: −log10 of the molar value.

The target of assay [1] is T1, human orexin-2 receptor (Homo sapiens, UniProt O43614).
T1 construct: expressed in transfected cells; host or cells: CHO cells (G418 selection)
T1 sequence (O43614 1-444): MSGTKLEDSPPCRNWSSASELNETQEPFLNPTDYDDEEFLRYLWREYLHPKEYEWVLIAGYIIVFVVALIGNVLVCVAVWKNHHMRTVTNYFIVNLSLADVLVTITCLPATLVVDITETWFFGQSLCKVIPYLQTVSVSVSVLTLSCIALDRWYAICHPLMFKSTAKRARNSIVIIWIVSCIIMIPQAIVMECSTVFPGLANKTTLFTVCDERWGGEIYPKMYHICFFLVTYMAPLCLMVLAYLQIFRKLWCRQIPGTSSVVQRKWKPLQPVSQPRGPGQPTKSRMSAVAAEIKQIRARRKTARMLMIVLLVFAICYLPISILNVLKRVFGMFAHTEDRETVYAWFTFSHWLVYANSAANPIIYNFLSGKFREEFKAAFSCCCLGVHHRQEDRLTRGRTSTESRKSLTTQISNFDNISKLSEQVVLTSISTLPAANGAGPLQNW
Put plainly: Intracellular calcium measurements (FLIPR), orexin receptor antagonistic activity, OX2. The class given is cell-based. Particulars: CHO cells expressing the human orexin-2 receptor; 10 nM orexin-A as agonist. The protocol: (§1) The orexin receptor antagonistic activity of the compounds of formula (I) is determined in accordance with the following experimental method.
(§2) Intracellular Calcium Measurements:
(§3) Chinese hamster ovary (CHO) cells expressing the human orexin-1 receptor and the human orexin-2 receptor, respectively, are grown in culture medium (Ham F-12 with L-Glutamine) containing 300 μg/ml G418, 100 U/ml penicillin, 100 μg/ml streptomycin and 10% inactivated fetal calf serum (FCS). The cells are seeded at 80,000 cells/well into 96-well black clear bottom sterile plates (Costar) which have been precoated with 1% gelatine in Hanks' Balanced Salt Solution (HBSS). All reagents are from Gibco BRL. The seeded plates are incubated overnight at 37° C. in 5% CO2.
(§4) Human orexin-A as an agonist is prepared as 1 mM stock solution in methanol:water (1:1), diluted in HBSS containing 0.1% bovine serum albumin (BSA) and 2 mM HEPES for use in the assay at a final concentration of 10 nM.
(§5) Antagonists are prepared as 10 mM stock solution in DMSO, then diluted in 96-well plates, first in DMSO, then in HBSS containing 0.1% bovine serum albumin (BSA) and 2 mM HEPES.
(§6) On the day of the assay, 100 μl of loading medium (HBSS containing 1% FCS, 2 mM HEPES, 5 mM probenecid (Sigma) and 3 μM of the fluorescent calcium indicator fluo-3 AM (1 mM stock solution in DMSO with 10% pluronic acid) (Molecular Probes) is added to each well.
(§7) The 96-well plates are incubated for 60 min at 37° C. in 5% CO2. The loading solution is then aspirated and cells are washed 3 times with 200 μl HBSS containing 2.5 mM probenecid, 0.1% BSA, 2 mM HEPES. 100 μl of that same buffer is left in each well.
Within the Fluorescent Imaging Plate Reader (FLIPR, Molecular Devices), antagonists are added to the plate in a volume of 50 μl, incubated for 20 min and finally 100 μl of agonist is added. Fluorescence is measured for each well at 1 second intervals, and the height of each fluorescence peak is compared to the height of the fluorescence peak induced by 10 nM orexin-A with buffer in place of antagonist. For each antagonist, IC50 value (the concentration of compound needed to inhibit 50% of the agonistic response) is determined. Antagonistic activities of compounds are in the nanomolar range below 1000 nM with respect to the OX1 and/or the OX2 receptor.
For orientation: Calcium assays in cells follow changes in intracellular calcium, usually with a dye or a luminescent sensor.

Assay [2] deals with T2, human orexin-1 receptor (Homo sapiens, UniProt O43613).
T2 construct: expressed in transfected cells; host or cells: CHO cells (G418 selection)
T2 sequence (O43613 1-425): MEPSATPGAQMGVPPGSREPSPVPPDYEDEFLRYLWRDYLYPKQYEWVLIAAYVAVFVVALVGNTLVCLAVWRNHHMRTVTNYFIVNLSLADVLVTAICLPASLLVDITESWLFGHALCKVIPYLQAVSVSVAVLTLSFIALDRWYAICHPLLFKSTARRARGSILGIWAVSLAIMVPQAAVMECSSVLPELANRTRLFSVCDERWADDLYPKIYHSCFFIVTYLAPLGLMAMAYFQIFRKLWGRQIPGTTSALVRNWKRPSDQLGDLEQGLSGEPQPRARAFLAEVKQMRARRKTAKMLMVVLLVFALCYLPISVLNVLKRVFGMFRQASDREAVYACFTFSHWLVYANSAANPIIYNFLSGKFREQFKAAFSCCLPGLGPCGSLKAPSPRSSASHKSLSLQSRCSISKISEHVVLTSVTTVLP
The experiment in a line: Intracellular calcium measurements (FLIPR), orexin receptor antagonistic activity, OX1. It counts as cell-based. The conditions noted are these: CHO cells expressing the human orexin-1 receptor; 10 nM orexin-A as agonist. As to the method: as §1, §2, §3, §4, §5, §6, §7
Within the Fluorescent Imaging Plate Reader (FLIPR, Molecular Devices), antagonists are added to the plate in a volume of 50 μl, incubated for 20 min and finally 100 μl of agonist is added. Fluorescence is measured for each well at 1 second intervals, and the height of each fluorescence peak is compared to the height of the fluorescence peak induced by 10 nM orexin-A with buffer in place of antagonist. For each antagonist, IC50 value (the concentration of compound needed to inhibit 50% of the agonistic response) is determined.

Usually pIC50 stands for the negative decadic logarithm of the IC50, by convention in mol/L. Consider `Cc1nc(C(=O)N2CSC[C@H]2CNC(=O)c2nn(C)c3ccccc23)c(-c2ccc(F)cc2)s1` [Example 4, 1-Methyl-1H-indazole-3-carboxylic acid {(R)-3-[5-(4-fluoro-phenyl)-2-methyl-thiazole-4-carbonyl]-thiazolidin-4-ylmethyl}-amide], for which the pIC50 in assay [1] is 8.10.

For the molecule `COc1cccc(-c2sc(C)nc2C(=O)N2CSC[C@H]2CNC(=O)c2cccc3occc23)c1` [Example 11, Benzofuran-4-carboxylic acid {(R)-3-[5-(3-methoxy-phenyl)-2-methyl-thiazole-4-carbonyl]-thiazolidin-4-ylmethyl}-amide], the pIC50 in assay [2] and in assay [1] was 9.00 in each case.

Consider `Cc1nc(C(=O)N2CSC[C@H]2CNC(=O)c2c(C)nc3sccn23)c(-c2cccc(F)c2)s1` [Example 31, 6-Methyl-imidazo[2,1-b]thiazole-5-carboxylic acid {(R)-3-[5-(3-fluoro-phenyl)-2-methyl-thiazole-4-carbonyl]-thiazolidin-4-ylmethyl}-amide], for which the pIC50 in assay [2] is 8.22; in assay [1] it was 8.15.

Take `Cc1nc(C(=O)N2CSC[C@H]2CNC(=O)c2c(C)nc3sccn23)c(-c2cccc(C(F)(F)F)c2)o1` [Example 38, 6-Methyl-imidazo[2,1-b]thiazole-5-carboxylic acid {(R)-3-[2-methyl-5-(3-trifluoromethyl-phenyl)-oxazole-4-carbonyl]-thiazolidin-4-ylmethyl}-amide]: the values for the pIC50 in assay [2] and in assay [1] were 7.23 and 7.10, respectively.

For the molecule `Cc1ccc(-c2nc(C)sc2C(=O)N2CSC[C@H]2CNC(=O)c2c(C)nc3sccn23)cc1` [Example 41, 6-Methyl-imidazo[2,1-b]thiazole-5-carboxylic acid [(R)-3-(2-methyl-4-p-tolyl-thiazole-5-carbonyl)-thiazolidin-4-ylmethyl]-amide], the pIC50 was 8.15 in assay [2] and 7.96 in assay [1].

For `O=C(NC[C@@H]1CSCN1C(=O)c1ccccc1-c1ccccc1)c1cccc2occc12` [Example 79, Benzofuran-4-carboxylic acid [(R)-3-(biphenyl-2-carbonyl)-thiazolidin-4-ylmethyl]-amide], the negative-log IC50 (pIC50) in assay [2] is 7.64; in assay [1] it was 8.05.

With `Cn1nc(C(=O)NC[C@@H]2CSCN2C(=O)c2ccccc2-c2ccccc2)c2ccccc21` [Example 83, 1-Methyl-1H-indazole-3-carboxylic acid [(R)-3-(biphenyl-2-carbonyl)-thiazolidin-4-ylmethyl]-amide], the pIC50 in assay [2] and in assay [1] was 8.22 in each case.

As to `Cc1nc(C(=O)N2CSC[C@H]2CNC(=O)c2cc3ccccc3s2)c(-c2ccc(F)cc2)s1` [Example 91, Benzo[b]thiophene-2-carboxylic acid {(R)-3-[5-(4-fluoro-phenyl)-2-methyl-thiazole-4-carbonyl]-thiazolidin-4-ylmethyl}-amide], the pIC50 was 5.23 in assay [2] and 7.66 in assay [1].

For `Cc1nc(C(=O)N2CSC[C@H]2CNC(=O)c2c(C)nc3ccccn23)c(-c2ccc(F)cc2)s1` [Example 110, 2-Methyl-imidazo[1,2-a]pyridine-3-carboxylic acid {(R)-3-[5-(4-fluoro-phenyl)-2-methyl-thiazole-4-carbonyl]-thiazolidin-4-ylmethyl}-amide], the pIC50 in assay [2] is 7.00; in assay [1], 6.09.

Take `Cc1nc(C(=O)N2CSC[C@H]2CNC(=O)c2cccc3c2NCCO3)c(-c2ccc(F)cc2)s1` [Example 112, 3,4-Dihydro-2H-benzo[1,4]oxazine-5-carboxylic acid {(R)-3-[5-(4-fluoro-phenyl)-2-methyl-thiazole-4-carbonyl]-thiazolidin-4-ylmethyl}-amide]: the pIC50 was 8.22 in assay [2] and 7.77 in assay [1].

Regarding `Cc1cccc(-c2sc(C)nc2C(=O)N2CSC[C@H]2CNC(=O)c2cccc3ncoc23)c1` [Example 119, Benzooxazole-7-carboxylic acid [(R)-3-(2-methyl-5-m-tolyl-thiazole-4-carbonyl)-thiazolidin-4-ylmethyl]-amide], the negative logarithm of the IC50 (pIC50) in assay [2] was 8.70; in assay [1] it was 8.52.

In the case of `Cc1cccc(-c2sc(C)nc2C(=O)N2CSC[C@H]2CNC(=O)c2ccc(F)c3occc23)c1` [Example 127, 7-Fluoro-benzofuran-4-carboxylic acid [(R)-3-(2-methyl-5-m-tolyl-thiazole-4-carbonyl)-thiazolidin-4-ylmethyl]-amide], the pIC50 in assay [2] was 8.70; in assay [1] it was 9.00.

On to `Cc1nc(C(=O)N2CSC[C@H]2CNC(=O)c2c(C)cn3ccsc23)c(-c2ccc(F)cc2)s1` [Example 132, 6-Methyl-pyrrolo[2,1-b]thiazole-7-carboxylic acid {(R)-3-[5-(4-fluoro-phenyl)-2-methyl-thiazole-4-carbonyl]-thiazolidin-4-ylmethyl}-amide], for which the results for the negative-log IC50 (pIC50) in assay [2] and in assay [1] were 8.30 and 8.22, respectively.

As for `COC1Cc2c(C(=O)NC[C@@H]3CSCN3C(=O)c3nc(C)sc3-c3cccc(C)c3)ccc(Cl)c2O1` (stereo partly drawn) [Example 133, 7-Chloro-2-methoxy-2,3-dihydro-benzofuran-4-carboxylic acid [(R)-3-(2-methyl-5-m-tolyl-thiazole-4-carbonyl)-thiazolidin-4-ylmethyl]-amide], the pIC50 in assay [2] is 8.10; in assay [1] it was 8.52.

Take `Cc1cccc(-c2sc(C)nc2C(=O)N2CSC[C@H]2CNC(=O)c2ccc(C(F)(F)F)c3occc23)c1` [Example 141, 7-Trifluoromethyl-benzofuran-4-carboxylic acid [(R)-3-(2-methyl-5-m-tolyl-thiazole-4-carbonyl)-thiazolidin-4-ylmethyl]-amide]: the pIC50 in assay [2] is 8.00; in assay [1] it was 8.40.

Turning to `Cc1cccc(-c2sc(C)nc2C(=O)N2CSC[C@H]2CNC(=O)c2cccc3oc(CO)cc23)c1` [Example 147, 2-Hydroxymethyl-benzofuran-4-carboxylic acid [(R)-3-(2-methyl-5-m-tolyl-thiazole-4-carbonyl)-thiazolidin-4-ylmethyl]-amide], the pIC50 in assay [2] was 8.05; in assay [1], 8.00.

(Values after patent US8236964B2, “Thiazolidine derivatives as orexin receptor antagonists” (Actelion Pharmaceuticals Ltd., priority 2007, dated 2012).)
